# Measured values taken from US7345020B2, “Mimetics of CD4 that inhibit immune response” (Thomas Jefferson University, priority 1995, dated 2008).
# “Also recorded” adds a separate entry of the source. Positions of bridges follow the written chain, without caps; N, C: chain ends. Residues, ends and D or L forms follow the SMILES beside them.
# Tests used:
# [1] = test system: human peripheral blood lymphocytes (responder cell alloreactive proliferation); settings: for activity of cyclic CNSNQIC compared with this linear peptide in human MLR: linear peptides derived from the same C—C′ region
# Protocol: For this assay, fresh peripheral blood lymphocytes from two different donors are co-cultured; the cells of one donor were irradiated and served as stimulators. Proliferation of these activated T cells was measured by measuring the incorporation of ^3H-thymidine at various timepoints.
# For human MLR, 50 ml of whole blood was collected into anti-coagulant (ACD, acid citrate dextrose) containing tubes. In 50 ml conical tubes, 20 ml of blood was layered over 20 ml Ficoll 1077 (Sigma Chemical Co., St. Louis, Mo.) and centrifuged at 2000 rpm for 35-40 min at 15-20° C. Buffy coats and serum were collected in 3× volume of PBS centrifuged at 1500 rpm for 15 min at 15-20° C. Supernatants were discarded, cells were washed 2× in 50 ml PBS and resuspended in RPMI supplemented with 10% heat-inactivated (56°, 30 min) human serum (cat# H4522, Sigma), 50 IU/ml pen/strep and 2 mM (1% of 200 mM stock) L-glutamine (both from BioWhitaker).
# In a 96-well flat bottom plate 1×10^5 responders were plated with 2×10^5 irradiated (3000 rad) simulators/well (added in 100 μl each), and incubated for 6, 7 or 8 days at 37° C., 7% CO2. Peptide analogues were added to quadruplicate wells, at a concentration of 100 μM (5 mg/ml stock) or titrations thereof, immediately after cells were plated. For radiolabelling, the cells were incubated with 1 μCi [^3H] TdR/well (25 μl) (diluted from 1 mCi/ml stock, Amersham) for the final 6 hours of incubation. Cells were harvested using a fiberfilter cell harvester (e.g., Harvester 96, Tomtec) and counted in a Beta Counter of Beta plate reader (1205 BS Betaplate Liquid Scintillation Counter, Wallac) with scintillation fluid.
# [2] = test system: experimental allergic encephalomyelitis (EAE); assay: EAE inhibition in vivo (SJL EAE model); set-up: species or system mouse; settings: for maximum mean EAE severity grade: SJL mice, 0.5 mg i.v. on day 12, 0-5 scale, untreated control maximum 2.0
# Protocol: The C—C′ loop peptides were initially tested for efficacy in the SJL EAE model. In untreated animals, a high incidence of disease was observed 15-22 days after two s.c. inoculations of 1 mg of crude murine spinal cord homogenate in complete Freund's adjuvant. The severity of the disease was scored daily using the established 0-5 scale that describes the level of ascending paresis, Korngold, R., et al., 1986, Immunogenetics 24:309-315. The level of the mean EAE severity grade of mice for the untreated control group reached a maximum of 2.0. […] Also shown are the results of groups of mice that received the rD-mPGPtide, a mimic of residues 86-104 of murine homolog of CD4, which was described in Jameson et al. 1994, Nature 368:744-746.
# [3] = test system: murine spleen responder cells with irradiated C3H stimulator cells; assay: Murine mixed lymphocyte reaction; type: cell-based, mouse; settings: in vitro
# Protocol: Mice were sacrificed and spleens aseptically removed. Cell suspensions were made by gently pressing spleens through nylon mesh, washing cells with RPMI 1640 and hypotonic lysis of red blood cells. After 3 washes in RPMI 1640, cells were resuspended in complete medium (RPMI 1640, 10% heat inactivated FCS, 2 mM L-glutamine, penicillin/streptomycin) and 5×10^5 responder cells incubated with 1×10^5 stimulator cells (C3H spleen cells, 2000 rad irradiated) in triplicate in round bottom 96 well plates (final volume 200 μl), and incubated with the indicated concentration of peptide (0.01, 0.1, 1, 10, 100 and 1000 μM peptide) for 5 days at 37° C., 5% CO2. 1 μCi/WELL OF [^3H] TdR was added 12 hours before thymidine incorporation was measured. Labelled DNA from cells was harvested onto glass fiber filters with a PHD cell harvester (Cambridge, Mass.), and CPM determined by liquid scintillation counting with the use of a 1209 Rackbeta (LKB, Piscataway, N.J.).
compound,measurement,setting,value
KNSNQ,activity of cyclic CNSNQIC compared with this linear peptide in human MLR,[1],significantly higher activity
"CNSNQIC (linear, no disulfide) [linear CNSNQIC]",maximum mean EAE severity grade,[2],1.0
NSNQI,activity of cyclic CNSNQIC compared with this linear peptide in human MLR,[1],significantly higher activity
KNSNQI,activity of cyclic CNSNQIC compared with this linear peptide in human MLR,[1],significantly higher activity
YCNSNQIC,"inhibitory activity in human MLR / human T cell proliferation, in words",[1]; in vitro,inhibitory activity comparable to the cyclic peptide CNSNQIC
same,"inhibitory activity in murine MLR, in words",[3],inhibitory activity comparable to the cyclic peptide CNSNQIC
same,"effect on EAE in mice, in words",[2],inhibitory activity comparable to the cyclic peptide CNSNQIC
"CC[C@H](C)[C@@H]1NC(=O)[C@H](CCC(N)=O)NC(=O)[C@H](CC(N)=O)NC(=O)[C@H](CO)NC(=O)[C@H](CC(N)=O)NC(=O)[C@@H](N)CSSC[C@@H](C(=O)O)NC1=O [cyclic CNSNQIC, CNSNQIC] (H-CNSNQIC-OH; disulfide 1-7; N-terminus and C-terminus assumed)",inhibition of human T cell activation (suppressive effect),[1]; 3 h,54.4%
same,maximum mean EAE severity grade,[2],1.0
same,"effect on EAE in mice, in words",[2],effective to ameliorate EAE; also recorded: inhibitor of EAE in mice
